Several values for one entry are separate records, joined by “and”; a condition that tells them apart may be missing. Identical values can stand only once. Entries after “also recorded” stand apart in the source; their conditions may differ. Like-named read-outs stand apart in the source and are kept apart here.
How the values were obtained:
[1] = Pharmacokinetics test using rats (brain permeability, blood and brain tissue by HPLC); assay type: in vivo, Sprague-Dawley rats; conditions: rat; for concentration at 30 min / Kp at 0.5 h / Kp at 30 min / concentration at 32 min / concentration at 44 min / Kp: Sprague-Dawley, iv; for concentration at 30 min / Kp at 0.5 h / Kp at 30 min / Brain/Plasma ratio / Conc. HPLC (concentration of compound in brain homogenate) / Conc. brain / concentration at 32 min / concentration at 44 min / Kp: 10 mg/kg; for Kp at 30 min / concentration of the compound in the brain based on the total dose: 30 minutes after administration; for Kp at 30 min: read-out: ratio of brain concentration to the concentration in the plasma; for Brain/Plasma ratio / Conc. HPLC (concentration of compound in brain homogenate) / Conc. brain: listed as mMeBG (2); for metabolism after intravenous administration (plasma concentration of compound and metabolites over time): i.v., FIGS. 7 to 9; for Kp: plasma 30 min
Description: Regarding O^6-(3-methylbenzyl) guanine (2) and O^6-(4-methylbenzyl) guanine (3) not labeled with ^11C synthesized by the above method (that is, cold), brain permeability was evaluated by the following method.
After intravenous administration (10 mg/kg) of O^6-(3-methylbenzyl) guanine (2) or O^6-(4-methylbenzyl) guanine (3) to Sprague-Dawley rats, blood and brain tissues were collected after a predetermined time, and analyzed by HPLC.

stability in the plasma = assay type: in vitro ADME
MGMT = molecular target: T1, MGMT (Homo sapiens, UniProt P16455); experiment: enzyme inhibitory activity against MGMT using fluorescent labeled oligonucleotide substrates; assay type: biochemical; conditions: FIG. 1
T1 sequence (P16455 1-207): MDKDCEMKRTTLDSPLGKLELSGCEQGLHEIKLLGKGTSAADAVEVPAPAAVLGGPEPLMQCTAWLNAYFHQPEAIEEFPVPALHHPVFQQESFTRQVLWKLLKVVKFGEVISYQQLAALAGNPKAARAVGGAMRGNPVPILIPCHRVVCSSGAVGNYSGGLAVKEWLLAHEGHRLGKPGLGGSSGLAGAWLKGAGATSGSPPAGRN
Excerpt: The introduction position of the [^11C] methyl group of the benzene ring present in the above-mentioned O^6-benzylguanine (1) was investigated. […] Erickson, K. D. Miller, B. H. Mock, B. E. Glick-Wilsob, W. L. Winkel, K. L. Stone, K. A. Carlson, Synth. Commun. 2003, 33, 941-952.

[2] = i.v. 10 mg/kg, 30 min, under anaesthesia, fasting, individual animals
[3] = i.v. 10 mg/kg, 30 min, under anaesthesia, nonfasting, individual animals
[4] = i.v. 10 mg/kg, 30 min, under nonanaesthesia, fasting, individual animals
[5] = brain homogenate, i.v. 10 mg/kg, under anaesthesia, fasting, read-out: Conc. HPLC (concentration of compound in brain homogenate)
[6] = brain, i.v. 10 mg/kg, under anaesthesia, fasting, read-out: Conc. brain

**Q.** For `Cc1cccc(COc2nc(N)nc3nc[nH]c23)c1` [Compound 2, O^6-(3-methylbenzyl) guanine], which concentration at 30 min ([1]; brain homogenate, i.v. 10 mg/kg, 30 min, under anaesthesia, fasting, average, read-out: Conc. HPLC (brain homogenate), Ave.) is on record?
**A.** 513 ng/mL

**Q.** And the concentration at 30 min ([1]; brain homogenate, i.v. 10 mg/kg, 30 min, under anaesthesia, fasting, individual animals, read-out: Conc. HPLC (concentration of compound in brain homogenate))?
**A.** 568 ng/mL

**Q.** What about the concentration at 30 min ([1]; brain homogenate, i.v. 10 mg/kg, 30 min, under anaesthesia, nonfasting, average, read-out: Conc. HPLC (brain homogenate), Ave.) of the same compound?
**A.** 663 ng/mL

**Q.** And the concentration at 30 min ([1]; brain homogenate, i.v. 10 mg/kg, 30 min, under anaesthesia, nonfasting, individual animals, read-out: Conc. HPLC (concentration of compound in brain homogenate))?
**A.** 784 ng/mL

**Q.** And the concentration at 30 min ([1]; brain homogenate, i.v. 10 mg/kg, 30 min, under nonanaesthesia, fasting, average, read-out: Conc. HPLC (brain homogenate), Ave.)?
**A.** 523 ng/mL

**Q.** And the concentration at 30 min ([1]; brain homogenate, i.v. 10 mg/kg, 30 min, under nonanaesthesia, fasting, individual animals, read-out: Conc. HPLC (concentration of compound in brain homogenate))?
**A.** 536 ng/mL

**Q.** And the Kp at 0.5 h ([1]; brain, i.v. 10 mg/kg, 30 min, under anaesthesia, fasting, average, read-out: Brain/Plasma ratio, Ave.)?
**A.** 0.303

**Q.** What about the concentration at 30 min ([1]; brain, i.v. 10 mg/kg, 30 min, under anaesthesia, fasting, average, read-out: Conc. brain, Ave.) of the same compound?
**A.** 1350 ng/mL

**Q.** What about the Kp at 0.5 h ([1]; brain, i.v. 10 mg/kg, 30 min, under anaesthesia, fasting, individual animals, read-out: Brain/Plasma ratio) of the same compound?
**A.** 0.336

**Q.** And the concentration at 30 min ([1]; brain, i.v. 10 mg/kg, 30 min, under anaesthesia, fasting, individual animals, read-out: Conc. brain)?
**A.** 1500 ng/mL

**Q.** What about the Kp at 0.5 h ([1]; brain, i.v. 10 mg/kg, 30 min, under anaesthesia, nonfasting (plasma value from anaesthesia, fasting rats), average, read-out: Brain/Plasma ratio, Ave.) of the same compound?
**A.** 0.373

**Q.** And the Kp at 0.5 h ([1]; brain, i.v. 10 mg/kg, 30 min, under anaesthesia, nonfasting (plasma value from anaesthesia, fasting rats), individual animals, read-out: Brain/Plasma ratio)?
**A.** 0.425

**Q.** What about the concentration at 30 min ([1]; brain, i.v. 10 mg/kg, 30 min, under anaesthesia, nonfasting, average, read-out: Conc. brain, Ave.) of the same compound?
**A.** 1660 ng/mL

**Q.** And the concentration at 30 min ([1]; brain, i.v. 10 mg/kg, 30 min, under anaesthesia, nonfasting, individual animals, read-out: Conc. brain)?
**A.** 1890 ng/mL

**Q.** What about the Kp at 0.5 h ([1]; brain, i.v. 10 mg/kg, 30 min, under nonanaesthesia, fasting, average, read-out: Brain/Plasma ratio, Ave.) of the same compound?
**A.** 0.265

**Q.** What about the concentration at 30 min ([1]; brain, i.v. 10 mg/kg, 30 min, under nonanaesthesia, fasting, average, read-out: Conc. brain, Ave.) of the same compound?
**A.** 1380 ng/mL

**Q.** What about the Kp at 0.5 h ([1]; brain, i.v. 10 mg/kg, 30 min, under nonanaesthesia, fasting, individual animals, read-out: Brain/Plasma ratio) of the same compound?
**A.** 0.27

**Q.** What about the concentration at 30 min ([1]; brain, i.v. 10 mg/kg, 30 min, under nonanaesthesia, fasting, individual animals, read-out: Conc. brain) of the same compound?
**A.** 1400 ng/mL

**Q.** What about the Kp at 30 min ([1]; brain, i.v. 10 mg/kg) of the same compound?
**A.** 0.3

**Q.** And the concentration at 30 min ([1]; plasma, average (n = 3), 30 min after i.v. 10 mg/kg of 2, rat under nonanaesthesia and fasting, other rats than brain sample, read-out: Conc. Plasma)?
**A.** 5190 ng/mL

**Q.** What about the concentration at 30 min ([1]; plasma, average (n = 5), 30 min after i.v. 10 mg/kg of 2, rat under anaesthesia and fasting, other rats than brain sample, read-out: Conc. Plasma) of the same compound?
**A.** 4450 ng/mL

**Q.** And the “accumulation in the brain” value ([1]; i.v. 10 mg/kg)?
**A.** accumulated in the brain

**Q.** What about the Brain/Plasma ratio [1, 2] of the same compound?
**A.** 0.275 and 0.298

**Q.** And the “Conc. HPLC (concentration of compound in brain homogenate)” value (“Conc. HPLC” below) [1, 2]?
**A.** 464 ng/mL and 507 ng/mL

**Q.** What about the Conc. brain [1, 2] of the same compound?
**A.** 1223 ng/mL and 1325 ng/mL

**Q.** And the Brain/Plasma ratio ([1]; i.v. 10 mg/kg, 30 min, under anaesthesia, nonfasting (plasma value from anaesthesia, fasting rats), individual animals)?
**A.** 0.398 and 0.296

**Q.** And the “Conc. HPLC” value [1, 3]?
**A.** 684 ng/mL and 522 ng/mL

**Q.** What about the Conc. brain [1, 3] of the same compound?
**A.** 1772 ng/mL and 1318 ng/mL

**Q.** And the Brain/Plasma ratio [1, 4]?
**A.** 0.315 and 0.255 and 0.249 and 0.229 and 0.277

**Q.** And the “Conc. HPLC” value [1, 4]?
**A.** 635 ng/mL and 474 ng/mL and 481 ng/mL and 454 ng/mL and 555 ng/mL

**Q.** What about the Conc. brain [1, 4] of the same compound?
**A.** 1634 ng/mL and 1323 ng/mL and 1291 ng/mL and 1188 ng/mL and 1436 ng/mL

**Q.** What about the “concentration of the compound in the brain based on the total dose” value ([1]; i.v. 10 mg/kg) of the same compound?
**A.** 0.1%

**Q.** And the “metabolism after intravenous administration (plasma concentration of compound and metabolites over time)” value [1]?
**A.** more stable than the compound (3) and was present for a long time

**Q.** And the “stability in the plasma” value (stability in the plasma)?
**A.** stably exist in the plasma

**Q.** What about the “MGMT inhibitory effect compared with O^6-benzylguanine (1)” value (MGMT) of the same compound?
**A.** MGMT inhibitory effect similar to O^6-benzylguanine (1); also recorded: slightly higher inhibitory activity than O^6-BG (1)

**Q.** Which concentration at 32 min [1, 5] does the source give for `Cc1ccc(COc2nc(N)nc3nc[nH]c23)cc1` [Compound 3, O^6-(4-methylbenzyl) guanine] here?
**A.** 231 ng/mL

**Q.** What about the concentration at 44 min [1, 5] of the same compound?
**A.** 118 ng/mL

**Q.** And the Kp at 30 min ([1]; brain, i.v. 10 mg/kg)?
**A.** 0.3

**Q.** And the concentration at 32 min [1, 6]?
**A.** 959 ng/mL

**Q.** And the concentration at 44 min [1, 6]?
**A.** 470 ng/mL

**Q.** What about the Kp ([1]; brain, i.v. 10 mg/kg, brain 32 min, under anaesthesia, fasting, read-out: Brain/Plasma ratio) of the same compound?
**A.** 0.386

**Q.** What about the Kp ([1]; brain, i.v. 10 mg/kg, brain 44 min, under anaesthesia, fasting, read-out: Brain/Plasma ratio) of the same compound?
**A.** 0.189

**Q.** What about the concentration at 30 min ([1]; plasma, average (n = 3), 30 min after i.v. 10 mg/kg of 3, rat under anaesthesia and fasting, other rats than brain sample, read-out: Conc. Plasma) of the same compound?
**A.** 2480 ng/mL

**Q.** What about the “accumulation in the brain” value ([1]; i.v. 10 mg/kg) of the same compound?
**A.** accumulated in the brain

**Q.** What about the “concentration of the compound in the brain based on the total dose” value ([1]; i.v. 10 mg/kg) of the same compound?
**A.** 0.1%

**Q.** And the “metabolism after intravenous administration (plasma concentration of compound and metabolites over time)” value [1]?
**A.** quickly metabolized to unknown, more polar compounds within 240 minutes

**Q.** And the “stability in the plasma” value (stability in the plasma)?
**A.** stably exist in the plasma

**Q.** And the “MGMT inhibitory effect compared with O^6-benzylguanine (1)” value (MGMT)?
**A.** MGMT inhibitory effect similar to O^6-benzylguanine (1); also recorded: slightly higher inhibitory activity than O^6-BG (1)
